Data: patent US20250276999A1, “PEPTIDES FOR PROMOTING HAIR FOLLICLE NEOGENESIS, AND PREVENTION/MITIGATION OF UNTOWARD EFFECTS OF RADIATION TREATMENT” (Trustees of Tufts College, priority 2022, published 2025)
“Also recorded” adds a separate entry of the source.

Key:
[1] = system: X-ray irradiated mice; assay: Radiation dermatitis murine model (thoracic X-ray irradiation); type: in vivo, C57BL/6 mice
Method: Sham irradiated mice without wounds were used as controls for radiation dermatitis, and treated identically as irradiated mice. Wounded mice, without radiation, were used as controls for combined injury.
Animals were irradiated in the RS2000 small animal irradiator. The RS2000 provides a cone-shaped radiation field with irradiation at 12.39-40.50 cm from the X-ray source. For dose measurements, irradiation was performed with the following settings: 160 kVp, 25 mA, 90 s irradiation time and 0.3 mm Cu beam filtration. The approximate HVL provided by the manufacturer was 0.62 mm Cu. […] A custom lead shield was placed on the floor of the irradiator, with the mouse thoracic region ˜43.75 cm from the X-ray source. Dose measurements were conducted twice to account for set-up error and reproducibility. […] The dose rate was reported for each aperture position 1-4 as an absorbed dose rate to water (ADRW, Gy/min) and the two repeated measurements were averaged.
Mice (12-14 weeks of age) were anesthetized using inhaled anesthesia (isoflurane), and the fur was clipped on the dorsal side of the thoracic region. […] Animals were then anesthetized with injected anesthesia (150 mg/kg ketamine/18 mg/kg xylazine) and placed in Lucite jigs for exposure to 16.5 Gy thoracic irradiation in the RS2000 X-ray irradiator as previously described [19].
TSN6 peptide (5 μg/day in 50 μl sterile saline) or hepatocyte growth factor (HGF; 3.3 μg/day in 50 μl sterile saline) or vehicle (sterile saline, 50 μl) were injected subcutaneously on days 2, 7 and 10 post-irradiation. Injections were made caudal, adjacent to the irradiated or irradiated/wounded area.
Animals were monitored daily for 85 days post-irradiation for both radiation dermatitis and combined injury models. Radiation dermatitis was separately scored for hair loss, erythema, scale, and ulceration. Scoring for erythema, scale and ulceration were previously described: 0=none; 1=minimal; 2=mild; 3=moderate; 4=marked [19]. Because all animals underwent fur clipping prior to irradiation and wounding, scoring for hair loss was determined as failure to regrow hair in the irradiated areas: 0=none; 1=minimal; 2=mild; 3=moderate; 4=marked. Animals were photographed for the measurement of wounds and for dermatitis scoring. […] Weight was measured as an indication of overall health.

[2] = system: human hair follicle formation in grafted DECs; assay: Dermal-epidermal composites (DECs) grafted onto nude mice; type: in vivo, NIH(S)-nu/nu female mice
Method: We next asked if TNS peptides could increase human hair follicle formation in grafted dermal-epidermal composite cultures. Human dermal papilla cells isolated from temporal scalp dermis and propagated in vitro. Normal foreskin keratinocytes (NFK) were isolated from neonatal foreskins (pooled from 5-7 donors) and were cultured in serum-free medium supplemented with EGF and bovine pituitary extract. Dermal epidermal composites (DECs) were prepared with human dermal papilla cells and NFK and were grafted onto nude mice. Imaging was done at 4 weeks, 6 weeks, 8 weeks, 10 weeks and 12 weeks and staining for hHLA was performed to evaluate hair follicle anatomy (FIG. 3). TSN peptides increased hair follicle generation (FIG. 3) as well as increased epidermal proliferation in vivo (FIG. 4).
Dermal-epidermal composites and grafting: Human dermal papilla cells isolated from temporal scalp dermis (Promocell, Heidelberg, Germany) from a donor (HDP47) were propagated in vitro according to manufacturer's recommendations. Normal foreskin keratinocytes (NFK) were isolated from neonatal foreskins (pooled from 5-7 donors) and were cultured in serum-free medium (Keratinocyte-SFM, Invitrogen), supplemented with EGF and bovine pituitary extract according to manufacturer's recommendation. Dermal epidermal composites (DECs) were prepared with human dermal papilla cells and NFK and were grafted onto nude mice. […]

[3] = 16.5 Gy, s.c. days 2, 7, 10 post-irradiation, TSN6 5 μg/day, HGF 3.3 μg/day, vs vehicle
[4] = skin 83 days post-irradiation, radiation alone

Sequence: HSPDIQLQKGLTFEPIQIK [TSN6, 19 amino acid peptide derived from multimerin-1, Coiled coil domain]
- combined scores of radiation skin effects ([1]; 16.5 Gy, TSN6 5 μg/day s.c. days 2, 7, 10 (FIG. 5E)): marked reduction
- erythema score [1, 3]: mitigated
- hair loss score [1, 3]: mitigated
- radiation dermatitis (overall measures) [1, 3]: mitigated; also recorded: Mitigation of radiation dermatitis
- scale score [1, 3]: mitigated
- adipose layer in H&E histological sections [1, 4]: preservation of the adipose layer
- epidermal thickening in H&E histological sections [1, 4]: reduction of the epidermal thickening
- hair follicles within the irradiated area (histology) [1, 4]: restoration of hair follicles
- epidermal proliferation in vivo (Ki-67+ cells in epidermis of grafts) ([2]; 1 μM peptide vs scrambled, P=0.08 (FIG. 4)): stimulates epidermal proliferation
- human hair follicle formation in grafted DECs ([2]; 12 weeks after grafting, human HLA staining, vs TSN6-scrambled (FIG. 3)): increases human hair follicle formation
